According to US20240148821A1, “PHARMACEUTICAL USE OF CYCLIC PEPTIDE COMPOUND” (CHUGAI SEIYAKU KABUSHIKI KAISHA, priority 2021, published 2024):
Bridge positions count the residues as written; N and C are the ends. Square brackets hold non-standard residues; d marks the D form. Peptide text beside a SMILES is read from it. * marks the point of attachment. NMeAbu(3,3-F2-piperidino) = CN[C@@H](CCN1CCCC(F)(F)C1)C(=O)O; hPhe(3-Cl-4-CF3) = N[C@@H](CCc1ccc(C(F)(F)F)c(Cl)c1)C(=O)O; hPhe(3-F,4-CF3) = N[C@@H](CCc1ccc(C(F)(F)F)c(F)c1)C(=O)O; NMePhe(4-CF3) = CN[C@@H](Cc1ccc(C(F)(F)F)cc1)C(=O)O; hPhe(4-CF3) = N[C@@H](CCc1ccc(C(F)(F)F)cc1)C(=O)O; NMePhe(4-Cl) = CN[C@@H](Cc1ccc(Cl)cc1)C(=O)O; NMePhe(4-Me) = CN[C@@H](Cc1ccc(C)cc1)C(=O)O; NMePhe(4-F) = CN[C@@H](Cc1ccc(F)cc1)C(=O)O; NMeAla(cPent) = CN[C@@H](CC1CCCC1)C(=O)O; NMeGly(cPent) = CN[C@H](C(=O)O)C1CCCC1; Pro(4,4-F2) = O=C(O)[C@@H]1CC(F)(F)CN1; NMeCha = CN[C@@H](CC1CCCCC1)C(=O)O; NEtLeu = CCN[C@@H](CC(C)C)C(=O)O; NMeChg = CN[C@H](C(=O)O)C1CCCCC1; NMeF = CN[C@@H](Cc1ccccc1)C(=O)O; NMeI = CC[C@H](C)[C@H](NC)C(=O)O; NMeD = CN[C@@H](CC(=O)O)C(=O)O; NMeL = CN[C@@H](CC(C)C)C(=O)O; NMeV = CN[C@H](C(=O)O)C(C)C; d(β3hA) = C[C@@H](N)CC(=O)O; NMeS = CN[C@@H](CO)C(=O)O; NMeA = CN[C@@H](C)C(=O)O; Piperidide = C1CCN(*)CC1; Pyrrolidide = C1CCN(*)C1; dNMeA = CN[C@H](C)C(=O)O; Ac5c = NC1(C(=O)O)CCCC1; Aze = O=C(O)[C@@H]1CCN1; Ac4c = NC1(C(=O)O)CCC1; CH2CMe2OH = CC(C)(O)C*; Aib = CC(C)(N)C(=O)O; Isopentyl = CC(C)CC*; NEtG = CCNCC(=O)O; βAla = NCCC(=O)O; Sar = CNCC(=O)O

Each molecule was assayed on Human pancreatic cancer cell line AsPC-1 (G12D mutation Kras) (assay: AsPC-1 cell growth inhibition (AsPC-1 CGI)). Settings: read-out: AsPC-1 cell growth inhibition, 50% growth inhibitory concentration (IC50 value); 96 hours, CellTiter-Glo, values classified in ranges.
Format: cell-based
Experimental: Test compounds were serially dilated with dimethyl sulfoxide, and 200 nL was then dispensed to a U-bottom 96-well plate using Labcyte Echo. […] The cell suspension was dispensed to a. plate containing a test compound at 100 μL per well and incubated at 37° C. in a 5% carbon dioxide gas incubator. 96 hours later, 80 μL of CellTiter-Glo (Promega) was added to each well and fluorescence was measured.
`CC[C@H](C)[C@@H]1NC(=O)[C@H](C)N(C)C(=O)C[C@@H](C(=O)N2CCCCC2)N(C)C(=O)[C@H](C(C)C)N(C)C(=O)C2(CCCC2)NC(=O)[C@@H]2CCCN2C(=O)[C@H](CCc2ccc(C(F)(F)F)c(Cl)c2)NC(=O)CN(C)C(=O)[C@H](Cc2ccccc2)N(C)C(=O)[C@@H]2CCCN2C(=O)CN(C)C1=O` [Compound 1753] ([NMeA]I[Sar]P[NMeF][Sar][hPhe(3-Cl-4-CF3)]P[Ac5c][NMeV][NMeD]-Piperidide; lactam N-11) was tested, and the IC50 was > 0.5 µM. With `CC[C@H](C)[C@@H]1NC(=O)[C@H](CC(C)C)N(C)C(=O)C[C@@H](C)NC(=O)[C@H](CC(C)C)N(C)C(=O)C2(CCCC2)NC(=O)[C@@H]2CCCN2C(=O)[C@H](CCc2ccc(C(F)(F)F)c(Cl)c2)NC(=O)CN(C)C(=O)[C@H](CC2CCCCC2)N(C)C(=O)CN(C)C(=O)CN(C)C1=O` [Compound 1503] (cyclo([Ac5c][NMeL][d(β3hA)][NMeL]I[Sar][Sar][NMeCha][Sar][hPhe(3-Cl-4-CF3)]P)) the IC50 was > 0.5 µM. With `CC[C@H](C)[C@@H]1NC(=O)[C@H](CC(C)C)N(CC)C(=O)C[C@@H](C(=O)N(C)C)N(C)C(=O)[C@H](C2CCCC2)N(C)C(=O)C2(CCCC2)NC(=O)[C@@H]2CCCN2C(=O)[C@H](CCc2ccc(C(F)(F)F)c(F)c2)NC(=O)CN(C)C(=O)[C@H](CC2CCCCC2)N(C)C(=O)[C@@H]2CCN2C(=O)[C@H](C)N(C)C1=O` [Compound 1324] ([NEtLeu]I[NMeA][Aze][NMeCha][Sar][hPhe(3-F,4-CF3)]P[Ac5c][NMeGly(cPent)][NMeD]-NMe2; lactam N-11) the IC50 was ≤ 0.02 µM. With `CC[C@H](C)[C@@H]1NC(=O)[C@H](CC(C)C)N(C)C(=O)C[C@@H](C(=O)N(C)C)N(C)C(=O)[C@H]([C@@H](C)CC)N(C)C(=O)[C@H](C)NC(=O)[C@H](CCN2CCCC(F)(F)C2)N(C)C(=O)[C@H](CCc2ccc(C(F)(F)F)c(Cl)c2)NC(=O)CN(C)C(=O)[C@H](Cc2ccc(C)cc2)N(C)C(=O)[C@@H]2CCN2C(=O)[C@H](C)N(C)C1=O` [Compound 1135] ([NMeL]I[NMeA][Aze][NMePhe(4-Me)][Sar][hPhe(3-Cl-4-CF3)][NMeAbu(3,3-F2-piperidino)]A[NMeI][NMeD]-NMe2; lactam N-11) the IC50 was > 0.5 µM. With `CC[C@H](C)[C@@H]1NC(=O)[C@H](CC(C)C)N(C)C(=O)C[C@@H](C)NC(=O)[C@H](CC(C)C)N(C)C(=O)C(C)(C)NC(=O)[C@H](COCC(C)(C)O)N(C)C(=O)[C@H](CCc2ccc(C(F)(F)F)c(Cl)c2)NC(=O)CN(C)C(=O)[C@H](COCCC(C)C)N(C)C(=O)[C@@H]2CCN2C(=O)CN(CC)C1=O` [Compound 1472] (cyclo([Aib][NMeL][d(β3hA)][NMeL]I[NEtG][Aze][NMeS](Isopentyl)[Sar][hPhe(3-Cl-4-CF3)][NMeS](CH2CMe2OH))) the IC50 was > 0.5 µM. For `CC[C@H](C)[C@@H]1NC(=O)CCNC(=O)[C@H](Cc2ccc(F)cc2)N(C)C(=O)[C@H](C2CCCCC2)N(C)C(=O)C2(CCCC2)NC(=O)[C@@H]2CCCN2C(=O)[C@H](CCc2ccc(C(F)(F)F)c(Cl)c2)NC(=O)CN(C)C(=O)[C@H](CC2CCCCC2)N(C)C(=O)CN(C)C(=O)CN(C)C1=O` [Compound 528] (cyclo([Ac5c][NMeChg][NMePhe(4-F)][βAla]I[Sar][Sar][NMeCha][Sar][hPhe(3-Cl-4-CF3)]P)), the IC50 was > 0.5 µM. In the case of `CC[C@H](C)[C@@H]1NC(=O)[C@H](CC2CCCC2)N(C)C(=O)C[C@@H](C(=O)N2CCCC2)N(C)C(=O)[C@H]([C@@H](C)CC)N(C)C(=O)C2(CCCC2)NC(=O)[C@@H]2CCCN2C(=O)[C@H](CCc2ccc(C(F)(F)F)c(Cl)c2)NC(=O)CN(C)C(=O)[C@H](Cc2ccc(C(F)(F)F)cc2)N(C)C(=O)[C@@H]2CCN2C(=O)[C@H](C)N(C)C1=O` [Compound 1183] ([NMeAla(cPent)]I[NMeA][Aze][NMePhe(4-CF3)][Sar][hPhe(3-Cl-4-CF3)]P[Ac5c][NMeI][NMeD]-Pyrrolidide; lactam N-11), the IC50 is reported as ≤ 0.02 µM. With `CC[C@H](C)[C@@H]1NC(=O)[C@H](C)N(C)C(=O)C[C@@H](C)NC(=O)[C@H](CC(C)C)N(C)C(=O)C(C)(C)NC(=O)[C@@H]2CCCN2C(=O)[C@H](CCc2ccc(C(F)(F)F)cc2)NC(=O)CN(C)C(=O)[C@H](Cc2ccc(Cl)cc2)N(C)C(=O)CN(C)C(=O)CN(C)C1=O` [Compound 664] (cyclo([Aib][NMeL][d(β3hA)][NMeA]I[Sar][Sar][NMePhe(4-Cl)][Sar][hPhe(4-CF3)]P)) the IC50 was > 0.5 µM. With `CC[C@H](C)[C@@H]1NC(=O)[C@H](CC(C)C)N(C)C(=O)C[C@@H](C(=O)N2CCCC2)N(C)C(=O)[C@H](C2CCCCC2)N(C)C(=O)C2(CCC2)NC(=O)[C@@H]2CC(F)(F)CN2C(=O)[C@H](CCc2ccc(C(F)(F)F)c(Cl)c2)NC(=O)CN(C)C(=O)[C@H](CC2CCCCC2)N(C)C(=O)CN(C)C(=O)CN(C)C1=O` [Compound 1163] ([NMeL]I[Sar][Sar][NMeCha][Sar][hPhe(3-Cl-4-CF3)][Pro(4,4-F2)][Ac4c][NMeChg][NMeD]-Pyrrolidide; lactam N-11) the IC50 was ≤ 0.02 µM. With `CC[C@H](C)[C@@H]1NC(=O)[C@H](C)N(C)C(=O)C[C@@H](C)NC(=O)[C@H](C2CCCC2)N(C)C(=O)C2(CCCC2)NC(=O)[C@@H]2CCCN2C(=O)[C@H](CCc2ccc(C(F)(F)F)c(Cl)c2)NC(=O)[C@@H](C)N(C)C(=O)[C@H](CC2CCCCC2)N(C)C(=O)CN(C)C(=O)CN(C)C1=O` [Compound 1535] (cyclo([Ac5c][NMeGly(cPent)][d(β3hA)][NMeA]I[Sar][Sar][NMeCha][dNMeA][hPhe(3-Cl-4-CF3)]P)) the IC50 was > 0.5 µM.
